Source: patent US10603357B2, “Therapeutic TREM-1 peptides” (Universite de Lorraine, priority 2004, dated 2020)
Marks after values point to notes of the source that are not given here.

How the values were obtained:
BALB/c mice = assay: LPS-induced endotoxaemia, survival of mice (Example 1); assay type: in vivo, mouse; details: for animals alive 7 days after LPS injection: 200 μl of 300 μM peptide i.p. 1 hour before 200 μg LPS i.p., 10 mice per group (FIG. 2, 3); for protection (survival) from LPS: 4 hours after LPS (FIG. 4)
Description: BALB/c mice (10 per group) were injected intraperitoneally with 200 μg LPS. The TREM-1 peptides P1, P2, P3, or P5 (200 μl of a 300 μM solution per mouse) were injected intraperitoneally 1 hour before LPS. Viability of mice was monitored twice a day for 7 days. Statistical analysis was performed by Logrank test. Data from control mice represent cumulative survival curves from two independent experiments performed under identical conditions.
BALB/c mice (10 per group) were injected intraperitoneally with 200 μg LPS. TREM-1 peptide P1, 200 μl of a 300 μM solution per mouse was injected intraperitoneally 1 hour before or 4 hours after LPS. Viability of mice was monitored twice a day for 7 days. Statistical analysis was performed with the Logrank test. Data from control mice represent cumulative survival curves from two independent experiments performed under identical conditions
BALB/c mice (10 per group) were injected intraperitoneally with 200 μg LPS. P1 peptide, 200 μl of a 150, 300 and 600 μM solution per mouse (dots) or P3, 200 μl of a 600 μM solution per mouse (filled squares) were injected intraperitoneally 4 hours after LPS. Viability of mice was monitored twice a day for 7 days. Statistical analysis was performed with the Logrank test
In the experiments of this example, the peptides were administered in a volume of 200 μl of the solution molarity indicated. To assess the ability of TREM1-peptides to protect mice from LPS-induced endotoxaemia, the Inventors administered peptides P1, P2, P3 and P5 (300 μM) 1 hour before a lethal dose of lipopolysaccharide (LPS) (FIG. 2). Lethality was monitored over time and compared with animals that had received control injections of vehicle alone. P5 injection confers maximal protection, with 90% of the animals still alive 7 days after LPS injection, as compared with 10% of control mice (p<0.001). 60% of the P1-treated mice and 50% of the P2 treated mice survived endotoxaemia as compared with 10% of control mice (p<0.01 and p<0.05 respectively).
In order to investigate whether TREM-1 peptide treatment could be delayed until after the administration of LPS, the Inventors injected the peptides at 4 hours after LPS injection. […] 80% of the mice injected with P1 4 hours after LPS survived endotoxaemia compared to 60% of mice treated 1 h before LPS and 10% of mice treated with vehicle alone (p<0.001 and p<0.01 respectively). Thus, P1 is effective even when injected after the outbreak of endotoxaemia. […] P1 administration conferred maximal protection (80%) when administered at 600 μM (p<0.01) and the level of protection dropped to 50% at 300 μM (p<0.05) and further down to 30% at 150 μM as compared to 20% of control mice, indicating a dose dependent effect of P1 (FIG. 4). The Inventors then investigated whether P1 protects against septic shock in the “CLP” model (Cecal Ligation and Puncture is a widely used experimental model of sepsis). Mice treated with two doses of P1 at 5 and 24 hours after CLP were protected from death as compared to control treated mice (p=0.0791) although the difference was not statistically significant. 40% of the mice injected with P1 at 5 days after CLP survived compared to 5% of mice treated with P3 peptide.

rats = assay: CLP polymicrobial sepsis model in rats, haemodynamic and biological measurements; assay type: in vivo, rat; details: for effect on TNF-α production: CLP (FIG. 16); for Aortic blood flow / Bicarbonate / Heart Rate / Lactate / Mesenteric blood flow / pH: CLP polymicrobial sepsis; for decline in arterial pressure over time: H16 to H24 (FIG. 15)
Description: The procedure has been described in details elsewhere (see Mansart, A. et al. Shock 19:38-44 (2003)). Briefly, rats (n=6-10 per group) were anesthetized by i.p. administration of ketamine (150 mg/kg). The caecum was exposed through a 3.0-cm abdominal midline incision and subjected to a ligation of the distal half followed by two punctures with a G21 needle. A small amount of stool was expelled from the punctures to ensure […]. The caecum was replaced into the peritoneal cavity and the abdominal incision closed in two layers. After surgery, all rats were injected s.c. with 50 mL/kg of normal saline solution for fluid resuscitation. TREM-1 or scrambled peptides were then administered as above.
Immediately after LPS administration as well as 16 hours after CLP, arterial BP (systolic, diastolic, and mean), heart rate, abdominal aortic blood flow, and mesenteric blood flow were recorded using a procedure described elsewhere (see Mansart, A. et al. Shock 19:38-44 (2003)). Briefly, the left carotid artery and the left jugular vein were cannulated with PE-50 tubing. Arterial BP was continuously monitored by a pressure transducer and an amplifier-recorder system (IOX EMKA Technologies, Paris, France). Perivascular probes (Transonic Systems, Ithaca, N.Y.) wrapped up the upper abdominal aorta and mesenteric artery, allowed to monitor their respective flows by means of a flowmeter (Transonic Systems). After the last measurement (4th hour during LPS experiments and 24th hour after CLP), animals were sacrificed by an overdose of sodium thiopental i.v.
Blood was sequentially withdrawn from the left carotid artery. Arterial lactate concentrations and blood gases analyses were performed on an automatic blood gas analyser (ABL 735, Radiometer, Copenhagen, Denmark). Concentrations of TNF-α and IL-1β in the plasma were determined by an ELISA test (Biosource, Nivelles, Belgium) according to the recommendations of the manufacturer. Plasmatic concentrations of nitrates/nitrites were measured using the Griess reaction (R&D Systems, Abingdon, UK).

| Sequence | animals alive 7 days after LPS injection (BALB/c mice) [%] | effect on TNF-α production (rats) | Aortic blood flow (rats; H16) [mL/min] | Bicarbonate (rats; H16) [mmol/L] | Heart Rate (rats; H16) | Lactate (rats; H16) | Mesenteric blood flow (rats; H16) | pH (rats; H16) | Aortic blood flow (rats; H20) | Bicarbonate (rats; H20) | Heart Rate (rats; H20) | Lactate (rats; H20) | Mesenteric blood flow (rats; H20) | pH (rats; H20) | Aortic blood flow (rats; H24) | Bicarbonate (rats; H24) | Heart Rate (rats; H24) [bpm] | Lactate (rats; H24) | Mesenteric blood flow (rats; H24) | pH (rats; H24) | other results |
| --- | --- | --- | --- | --- | --- | --- | --- | --- | --- | --- | --- | --- | --- | --- | --- | --- | --- | --- | --- | --- | --- |
| LQVTDSGLYRCVIYHPP [P5] | 90 | decrease | 41 ± 14 | 18.6 ± 2.0 | 460 ± 17^b bpm | 3.3 ± 0.4^b mmol/L | 15.3 ± 3.5^b mL/min | 7.35 ± 0.01^b | 31 ± 5^b mL/min | 18.0 ± 0.9^a mmol/L | 500 ± 17^b bpm | 3.6 ± 0.9^b, c mmol/L | 11.0 ± 6.9^b, c mL/min | 7.34 ± 0.01^b | 28 ± 8^b mL/min | 17.1 ± 0.9^a, c mmol/L | 510 ± 20 | 4.9 ± 1.1^b, c mmol/L | 8.5 ± 3.5^b, c mL/min | 7.36 ± 0.01^b, c | decline in arterial pressure over time (rats; CLP): almost totally abolished; plasmatic TNF-α (rats; CLP, by H20 (FIG. 16)): almost undetectable |
| LVVTQRPFTRPSEVHMGKFTLKH (listed as Mus musculus) [P1] | 60 | decrease | 41 ± 12 | 16.8 ± 4.4 | 462 ± 16^a bpm | 4.9 ± 0.4 mmol/L | 13.5 ± 7.2 mL/min | 7.32 ± 0.04 | 28 ± 17^a mL/min | 16.0 ± 5.4^b mmol/L | 480 ± 30^a bpm | 5.3 ± 1.1^a, c mmol/L | 5.3 ± 3.0^c mL/min | 7.31 ± 0.18^a | 22 ± 16^a mL/min | 11.2 ± 0.8^c mmol/L | 420 ± 30 | 6.8 ± 0.9^a, c mmol/L | 4.5 ± 2.1^c mL/min | 7.24 ± 0.06^a, c | protection (survival) from LPS (BALB/c mice; 200 μl of 150 μM): 30%; protection (survival) from LPS (BALB/c mice; 200 μl of 300 μM): 50%; protection (survival) from LPS (BALB/c mice; 200 μl of 600 μM): 80%; late death over one week (BALB/c mice; delayed treatment after LPS): No late death occurred; mice surviving endotoxaemia (BALB/c mice; peptide 300 μM injected 4 hours after LPS (FIG. 3)): 80%; decline in arterial pressure over time (rats; CLP): almost totally abolished |
